Measured values published in paper PMC6150201, “Synthesis and Antitumor Activity of Novel Arylpiperazine Derivatives Containing the Saccharin Moiety” (Molecules : A Journal of Synthetic Chemistry and Natural …, 2017).
Read-outs that look alike come from different tables or passages of the source.

How the values were obtained:
LNCaP cells [1] = assay: In vitro cytotoxicity, CCK-8 assay, LNCaP cells; assay type: cell-based, human; details: for IC50: LNCaP, androgen-sensitive human prostate cancer cell line, CCK-8, 24 h exposure, mean ± SD of three experiments; for selective activity for LNCaP cells over other cancer cells: from IC50 comparison
Experimental: (§1) The synthesized target compounds 4–21 were evaluated for their in vitro cytotoxic activities against three human prostate cancer cell lines (PC-3, LNCaP, and DU145) and compared with their effects on the human prostate epithelial cell line WPMY-1 by CCK-8 assay.
(§2) PC-3 and WPMY-1 cells were cultured in Dulbecco’s modified Eagle’s medium (DMEM, Invitrogen, Carlsbad, CA, USA) supplemented with 10% fetal bovine serum (FBS, Hyclone, Logan, UT, USA), 100 U/mL penicillin, and 0.1 mg/mL streptomycin (Invitrogen). DU145 cells were cultured in RPMI1640 media supplemented with 10% fetal bovine serum (FBS, Hyclone), 100 U/mL penicillin, and 0.1 mg/mL streptomycin (Invitrogen). LNCaP cells were cultured in F12 media supplemented with 10% fetal bovine serum (FBS, Hyclone), 100 U/mL penicillin, and 0.1 mg/mL streptomycin (Invitrogen). The cells were incubated at 37 °C in a humidified atmosphere with 5% CO2.
(§3) Cell proliferation was measured with the Cell Counting Kit-8 (CCK-8) assay kit (Dojindo Corp., Kumamoto, Japan). Cells were harvested during their logarithmic growth phase, seeded in 96-well plates at a density of 1 × 10^5 cells/mL, and cultured at 37 °C in a humidified incubator (5% CO2) for 24 h, followed by exposure to various concentrations of compounds tested for 24 h. Subsequently, 10 μL of CCK-8 (Dojindo) was added to each well, and the cells were then incubated for an additional 1 h at 37 °C to convert WST-8 into formazan. Cell growth inhibition was determined by measuring the absorbance (Abs) at λ = 450 nm using a microplate reader. Three independent experiments were performed. Cell growth inhibition was calculated according to the following equation: Growth inhibition = (1 − OD of treated cells / OD of control cells) × 100%
(§4) The half maximal inhibitory concentrations (IC50) were obtained from a linear regression analysis of the concentration-response curves plotted for each tested compound.

WPMY-1 cells = assay: In vitro cytotoxicity, CCK-8 assay, WPMY-1 prostate epithelial cells; assay type: cell-based, human; details: for IC50: WPMY-1, human prostate epithelial cell line, CCK-8, 24 h exposure, mean ± SD of three experiments
Experimental: as §1, §2, §3, §4

PC-3 cells [2] = assay: In vitro cytotoxicity, CCK-8 assay, PC-3 cells; assay type: cell-based, human; details: for IC50: PC-3, androgen-insensitive human prostate cancer cell line, CCK-8, 24 h exposure, mean ± SD of three experiments; for selective activity for PC-3 cells over other cancer cells: from IC50 comparison
Experimental: as §1, §2, §3, §4

DU145 cells [3] = assay: In vitro cytotoxicity, CCK-8 assay, DU145 cells; assay type: cell-based, human; details: for IC50: androgen-insensitive human prostate cancer cell line, CCK-8, 24 h exposure, mean ± SD of three experiments; for selective activity for DU145 cells over other cancer cells: in words, from IC50 comparison
Experimental: as §1, §2, §3, §4

LNCaP cells [4] = test system: LNCaP cells; design: method as in PMID 24910245; details: reference compound, SD not given; cited from earlier work
DU145 cells [5] = test system: DU145 cells; design: method as in PMID 24910245; details: reference compound, SD not given; cited from earlier work
PC-3 cells [6] = test system: PC-3 cells; design: method as in PMID 24910245; details: reference compound, SD not given; cited from earlier work

Row | SMILES | IC50 (LNCaP cells [1]) [µM] | melting point [°C] | IC50 (WPMY-1 cells) [µM] | IC50 (PC-3 cells [2]) [µM] | IC50 (DU145 cells [3]; Homo sapiens, DU-145, 24 h) [µM] | IC50 (DU145 cells [3]) [µM] | selective activity for DU145 cells over other cancer cells (DU145 cells [3]) | selective activity for PC-3 cells over other cancer cells (PC-3 cells [2]; in words) | cytotoxic effects on human epithelial prostate normal cells WPMY-1 (in words) (WPMY-1 cells) | selective activity for LNCaP cells over other cancer cells (LNCaP cells [1]; in words) | cytotoxic activity for LNCaP cells (in words) (LNCaP cells [1]; in words) | cytotoxic activity for PC-3 cells (in words) (PC-3 cells [2]; in words) | IC50 (LNCaP cells [4]) [µM] | IC50 (DU145 cells [5]) [µM] | IC50 (PC-3 cells [6]) [µM]
1 | O=C1c2ccccc2S(=O)(=O)N1Cc1ccc(CCN2CCN(c3ccccc3)CC2)cc1 [Compound 4, Saccharin N-(1-(4-(methyl)phenethyl)-4-phenylpiperazine)] | > 50 | 147 to 148 | > 50 | > 50 | < 2 | 1.28 ± 0.04 | excellent selective activity |  |  |  |  |  |  |  | 
2 | O=C1c2ccccc2S(=O)(=O)N1Cc1ccc(CCN2CCN(c3ccccn3)CC2)cc1 [Compound 5, Saccharin N-(1-(4-(methyl)phenethyl)-4-(pyridin-2-yl)piperazine)] | > 50 | 149 to 150 | > 50 | > 50 | 3.57 ± 0.08 |  | excellent selective activity |  |  |  |  |  |  |  | 
3 | O=C1c2ccccc2S(=O)(=O)N1Cc1ccc(CCN2CCN(c3ncccn3)CC2)cc1 [Compound 6, Saccharin N-(2-(4-(4-(methyl)phenethyl)piperazin-1-yl)pyrimidine)] | > 50 | 153 to 154 | 48.3 ± 0.56 | 4.84 ± 0.17 | > 50 |  |  | excellent selective activity |  |  |  |  |  |  | 
4 | Cc1cccc(N2CCN(CCc3ccc(CN4C(=O)c5ccccc5S4(=O)=O)cc3)CC2)c1 [Compound 7, Saccharin N-(1-(4-(methyl)phenethyl)-4-m-tolylpiperazine)] | > 50 | 126 to 127 | > 50 | > 50 | 3.65 ± 0.1 |  | excellent selective activity |  |  |  |  |  |  |  | 
5 | Cc1ccc(N2CCN(CCc3ccc(CN4C(=O)c5ccccc5S4(=O)=O)cc3)CC2)cc1 [Compound 8, Saccharin N-(1-(4-(methyl)phenethyl)-4-p-tolylpiperazine)] | > 50 | 130 to 131 |  | > 50 | > 50 |  |  |  |  |  |  |  |  |  | 
6 | COc1cccc(N2CCN(CCc3ccc(CN4C(=O)c5ccccc5S4(=O)=O)cc3)CC2)c1 [Compound 9, Saccharin N-(1-(4-(methyl)phenethyl)-4-(3-methoxyphenyl)piperazine)] | > 50 | 134 to 135 | > 50 | 5.43 ± 0.18 | > 50 |  |  | excellent selective activity |  |  |  |  |  |  | 
7 | COc1ccc(N2CCN(CCc3ccc(CN4C(=O)c5ccccc5S4(=O)=O)cc3)CC2)cc1 [Compound 10, Saccharin N-(1-(4-(methyl)phenethyl)-4-(4-methoxyphenyl)piperazine)] | > 50 | 149 to 150 | > 50 | 4.38 ± 0.13 | 2.28 ± 0.05 |  |  |  |  |  |  |  |  |  | 
8 | O=C1c2ccccc2S(=O)(=O)N1Cc1ccc(CCN2CCN(c3ccccc3F)CC2)cc1 [Compound 11, Saccharin N-(1-(4-(methyl)phenethyl)-4-(2-fluorophenyl)piperazine)] | 47.5 ± 2.17 | 137 to 138 | > 50 | > 50 | > 50 |  |  |  |  |  |  |  |  |  | 
9 | O=C1c2ccccc2S(=O)(=O)N1Cc1ccc(CCN2CCN(c3ccc(F)cc3)CC2)cc1 [Compound 12, Saccharin N-(1-(4-(methyl)phenethyl)-4-(4-fluorophenyl)piperazine)] | > 50 | 152 to 153 | > 50 | > 50 | < 2 | 1.14 ± 0.1 | excellent selective activity |  | weak cytotoxic effects |  |  |  |  |  | 
10 | O=C1c2ccccc2S(=O)(=O)N1Cc1ccc(CCN2CCN(c3ccc(F)cc3F)CC2)cc1 [Compound 13, Saccharin N-(1-(4-(methyl)phenethyl)-4-(2,4-difluorophenyl)piperazine)] | 5.03 ± 0.13 | 113 to 114 | > 50 | > 50 | > 50 |  |  |  |  | excellent selective activity |  |  |  |  | 
11 | O=C1c2ccccc2S(=O)(=O)N1Cc1ccc(CCN2CCN(c3ccccc3Cl)CC2)cc1 [Compound 14, Saccharin N-(1-(4-(methyl)phenethyl)-4-(2-chlorophenyl)piperazine)] | > 50 | 135 to 136 |  | 14.6 ± 1.12 | 3.39 ± 0.11 |  | excellent selective activity |  |  |  |  |  |  |  | 
12 | O=C1c2ccccc2S(=O)(=O)N1Cc1ccc(CCN2CCN(c3cccc(Cl)c3)CC2)cc1 [Compound 15, Saccharin N-(1-(4-(methyl)phenethyl)-4-(3-chlorophenyl)piperazine)] | 3.43 ± 0.16 | 143 to 144 | > 50 | 2.74 ± 0.11 | > 50 |  |  |  |  |  |  |  |  |  | 
13 | O=C1c2ccccc2S(=O)(=O)N1Cc1ccc(CCN2CCN(c3ccc(Cl)cc3)CC2)cc1 [Compound 16] | > 50 | 158 to 159 |  | > 50 | > 50 |  |  |  |  |  | weak cytotoxic activity | weak cytotoxic activity |  |  | 
14 | O=C1c2ccccc2S(=O)(=O)N1Cc1ccc(CCN2CCN(c3cccc(Cl)c3Cl)CC2)cc1 [Compound 17, Saccharin N-(1-(4-(methyl)phenethyl)-4-(2,3-dichlorophenyl)piperazine)] | 4.08 ± 0.15 | 178 to 179 | > 50 | > 50 | > 50 |  |  |  | weak cytotoxic effects | excellent selective activity |  |  |  |  | 
15 | O=C1c2ccccc2S(=O)(=O)N1Cc1ccc(CCN2CCN(c3ccc(Br)cc3)CC2)cc1 [Compound 18, Saccharin N-(1-(4-(methyl)phenethyl)-4-(4-bromophenyl)piperazine)] | > 50 | 105 to 106 | > 50 | 2.25 ± 0.07 | 9.05 ± 0.23 |  |  |  |  |  |  |  |  |  | 
16 | N#Cc1ccccc1N1CCN(CCc2ccc(CN3C(=O)c4ccccc4S3(=O)=O)cc2)CC1 [Compound 19, Saccharin N-(2-(4-(4-(methyl)phenethyl)piperazin-1-yl)benzonitrile)] | 5.14 ± 0.16 | 146 to 147 | 39.15 ± 0.17 | > 50 | > 50 |  |  |  |  | excellent selective activity |  |  |  |  | 
17 | N#Cc1ccc(N2CCN(CCc3ccc(CN4C(=O)c5ccccc5S4(=O)=O)cc3)CC2)cc1 [Compound 20, Saccharin N-(4-(4-(4-(methyl)phenethyl)piperazin-1-yl)benzonitrile)] | 3.43 ± 0.1 | 179 to 180 | 46.3 ± 0.51 | 2.66 ± 0.04 | > 50 |  |  |  |  |  |  |  |  |  | 
18 | O=C1c2ccccc2S(=O)(=O)N1Cc1ccc(CCN2CCN(c3ccc(C(F)(F)F)cc3)CC2)cc1 [Compound 21, Saccharin N-(1-(4-(methyl)phenethyl)-4-(4-(trifluoromethyl)phenyl)piperazine)] | > 50 | 108 to 109 |  | 3.73 ± 0.08 | > 50 |  |  | excellent selective activity |  |  |  |  |  |  | 
19 | CC(C)(C)NC(=O)[C@H]1CC[C@H]2[C@@H]3CC[C@H]4NC(=O)C=C[C@]4(C)[C@H]3CC[C@]12C [Finasteride] |  |  |  |  |  |  |  |  |  |  |  |  | 14.5 | 13.5 | 17.8
20 | COc1ccccc1N1CCN(CC(O)COc2cccc3ccccc23)CC1 (centres unmarked) [Naftopidil, reference compound] | 22.4 ± 0.61 |  | > 50 | 42.1 ± 0.79 | 34.58 ± 0.31 |  |  |  |  |  |  |  |  |  | 
